Results on two molecules are retold here after US8602544B2, “Ink set, ink cartridge, ink jet recording method, and ink jet recording apparatus” (Canon Kabushiki Kaisha, priority 2009, dated 2013).

This series in a line: Determination of poor medium/good medium (solubility of the dye in a water-soluble organic solvent). In kind it is physicochemical. The method, then: It is determined by the solubility of the dye whether a certain water-soluble organic solvent is a good medium or a poor medium with respect to a dye to be used together. In other words, the good medium and the poor medium are indexes which indicate the relationship between the water-soluble organic solvent and the dye from the viewpoint of the solubility.
More specifically, it can be determined in the following way whether a certain water-soluble organic solvent is a good medium or a poor medium with respect to a dye being an object to be determined. The water-soluble organic solvent of an object to be determined and a sufficient amount of a dye are placed into a sample bottle having a capacity of approximately 20 cc, and the liquid is stirred overnight. […] Because the supernatant liquid after the centrifugal separation is a saturated solution of the dye, the solubility of the dye can be determined by measuring the absorbance of the liquid, and calculating the ratio of the measured absorbance to the absorbance of an aqueous solution of the dye with a known concentration.
In order to evaluate the reliability of the ink, it was determined what type of relationship there was between a dye and a water-soluble organic solvent which were contained in an ink. A water-soluble organic solvent being an object to be determined (when the water-soluble organic compound is solid, it was a 20% aqueous solution of the solid) and a sufficient amount of the dye were placed into a sample bottle having a capacity of 20 cc, and the liquid was stirred overnight. […] Then, the solubility of the dye with respect to the water-soluble organic solvent being the object to be determined (or 20% aqueous solution) was determined from the ratio of the measured absorbance to the previously measured absorbance of an aqueous solution having a predetermined concentration of the dye. From the obtained solubility, a water-soluble organic solvent having a solubility of 5% or less was determined to be a poor medium, and a water-soluble organic solvent having a solubility of more than 5% was determined to be a good medium.

[1] abbreviates: 1-(2-hydroxyethyl)-2-pyrrolidinone.
Where [2] appears, read: Triethylene glycol monobutyl ether.

The structures appear in SMILES notation.

For the molecule `Cn1c(=O)c(C(=O)c2cccc(S(=O)(=O)O)c2)c2c3c(c(Nc4cc(Nc5nc(NCCNc6nc(Nc7cc(Nc8ccc9c%10c8C(=O)c8ccccc8-c%10c(C(=O)c8cccc(S(=O)(=O)O)c8)c(=O)n9C)c(S(=O)(=O)O)cc7S(=O)(=O)O)nc(Oc7ccc(S(=O)(=O)O)cc7)n6)nc(Oc6ccc(S(=O)(=O)O)cc6)n5)c(S(=O)(=O)O)cc4S(=O)(=O)O)ccc31)C(=O)c1ccccc1-2` [Exemplified compound M1], the “Determination results for poor medium/good medium (solubility of the dye)” value (1,2-hexandiol) is “poor (a water-soluble organic solvent having a solubility of 5% or less was determined to be a poor medium)”; the “Determination results for poor medium/good medium (solubility of the dye)” value (1,5-pentanediol) was “poor (a water-soluble organic solvent having a solubility of 5% or less was determined to be a poor medium)”; the “Determination results for poor medium/good medium (solubility of the dye)” value under setting [1] was “good (a water-soluble organic solvent having a solubility of more than 5% was determined to be a good medium)”; the “Determination results for poor medium/good medium (solubility of the dye)” value (2-methyl-1,3-propanediol) is given as “poor (a water-soluble organic solvent having a solubility of 5% or less was determined to be a poor medium)”; the “Determination results for poor medium/good medium (solubility of the dye)” value (Diethylene glycol) is listed as “good (a water-soluble organic solvent having a solubility of more than 5% was determined to be a good medium)”; the “Determination results for poor medium/good medium (solubility of the dye)” value (Ethylene glycol) is on record as “good (a water-soluble organic solvent having a solubility of more than 5% was determined to be a good medium)”. For the same molecule, the “Determination results for poor medium/good medium (solubility of the dye)” value by setting is: (Glycerin) “good (a water-soluble organic solvent having a solubility of more than 5% was determined to be a good medium)”; (Propylene glycol) “good (a water-soluble organic solvent having a solubility of more than 5% was determined to be a good medium)”; (Triethylene glycol) “good (a water-soluble organic solvent having a solubility of more than 5% was determined to be a good medium)”; under setting [2], “good (a water-soluble organic solvent having a solubility of more than 5% was determined to be a good medium)”.

Consider `CCc1cc(C)c(S(=O)(=O)O)c(CC)c1Nc1nc(N(c2nc3ccc(S(=O)(=O)O)cc3s2)c2c(CC)cc(C)c(S(=O)(=O)O)c2CC)cc(C)c1N=Nc1c(C#N)c(C(C)(C)C)nn1-c1nc2ccc(S(=O)(=O)O)cc2s1` [Exemplified compound M2], for which the “Determination results for poor medium/good medium (solubility of the dye)” value is reported as “good (a water-soluble organic solvent having a solubility of more than 5% was determined to be a good medium)” (1,2-hexandiol); “good (a water-soluble organic solvent having a solubility of more than 5% was determined to be a good medium)” (1,5-pentanediol); “good (a water-soluble organic solvent having a solubility of more than 5% was determined to be a good medium)” under setting [1]; “good (a water-soluble organic solvent having a solubility of more than 5% was determined to be a good medium)” (2-methyl-1,3-propanediol); “good (a water-soluble organic solvent having a solubility of more than 5% was determined to be a good medium)” (Diethylene glycol); “good (a water-soluble organic solvent having a solubility of more than 5% was determined to be a good medium)” (Ethylene glycol). Further, the “Determination results for poor medium/good medium (solubility of the dye)” value is reported as “good (a water-soluble organic solvent having a solubility of more than 5% was determined to be a good medium)” (Glycerin), “good (a water-soluble organic solvent having a solubility of more than 5% was determined to be a good medium)” (Propylene glycol), “good (a water-soluble organic solvent having a solubility of more than 5% was determined to be a good medium)” (Triethylene glycol) and “good (a water-soluble organic solvent having a solubility of more than 5% was determined to be a good medium)” under setting [2].
